According to patent US10633342B2, “Inhibitors of indoleamine 2,3-dioxygenase and methods of their use” (BRISTOL-MYERS SQUIBB COMPANY, priority 2016, dated 2020):

Biological target: T1, human IDO1 (Homo sapiens, UniProt P14902)
T1 construct: expressed in transfected cells
Assay: HEK Human IDO-1 inhibition assay (kynurenine, Ehrlich reagent, absorbance 490 nm)
Format: cell-based
Conditions: human IDO1/HEK293 cells, 20 hours incubation; read-out: HEK Human IDO-1 Bio Activity (IDO IC50)
Experimental: HEK293 cells were transfected with a pCDNA-based mammalian expression vector harboring human IDO1 cDNA (NM 002164.2) by electroporation. They were cultured in medium (DMEM with 10% FBS) containing 1 mg/ml G418 for two weeks. Clones of HEK293 cells that stably expressed human IDO1 protein were selected and expanded for IDO inhibition assay.
The human IDO1/HEK293 cells were seeded at 10,000 cells per 50 μL per well with RPMI/phenol red free media contains 10% FBS in a 384-well black wall clear bottom tissue culture plate (Matrix Technologies LLC) 100 nL of certain concentration of compound was then added to each well using ECHO liquid handling systems. The cells were incubated for 20 hours in 37° C. incubator with 5% CO2.
The compound treatments were stopped by adding trichloroacetic acid (Sigma-Aldrich) to a final concentration at 0.2%. The cell plate was further incubated at 50° C. for 30 minute. The equal volume supernatant (20 μL) and 0.2% (w/v) Ehrlich reagent (4-dimethylaminobenzaldehyde, Sigma-Aldrich) in glacial acetic acid were mixed in a new clear bottom 384-well plate. This plate was then incubated at room temperature for 30 minute. The absorbance at 490 nm was measured on Envision plate reader.
Compound IC50 values were calculated using the counts of 500 nM of a reference standard treatment as one hundred percent inhibition, and counts of no compound but DMSO treatment as zero percent inhibition.

T1 sequence (P14902 whole entry): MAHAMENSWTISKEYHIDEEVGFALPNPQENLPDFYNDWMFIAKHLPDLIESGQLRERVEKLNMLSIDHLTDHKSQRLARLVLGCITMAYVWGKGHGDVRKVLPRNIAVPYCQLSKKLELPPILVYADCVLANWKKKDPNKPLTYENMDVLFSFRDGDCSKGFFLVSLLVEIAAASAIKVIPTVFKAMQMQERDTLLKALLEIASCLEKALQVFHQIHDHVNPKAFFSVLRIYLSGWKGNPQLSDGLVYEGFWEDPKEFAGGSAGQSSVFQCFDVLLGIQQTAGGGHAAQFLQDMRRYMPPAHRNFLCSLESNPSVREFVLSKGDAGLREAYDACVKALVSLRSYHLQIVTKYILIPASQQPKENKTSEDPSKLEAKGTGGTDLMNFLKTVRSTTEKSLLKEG

Structure (SMILES) | IC50
Cc1ccc(CC(=O)NCC2CCN(c3ccnc4ccc(F)cc34)CC2)cc1 [Example 1, N-((1-(6-Fluoroquinolin-4-yl)piperidin-4-yl)methyl)-2-(p-tolyl)acetamide] | < 100 nM
O=C(Cc1ccc(F)cc1)NCC1CCN(c2ccnc3ccc(F)cc23)CC1 [Example 2, 2-(4-Fluorophenyl)-N-((1-(6-fluoroquinolin-4-yl)piperidin-4-yl)methyl)acetamide] | < 100 nM
O=C(Cc1ccccc1F)NCC1CCN(c2ccnc3ccc(F)cc23)CC1 [Example 3, 2-(2-Fluorophenyl)-N-((1-(6-fluoroquinolin-4-yl)piperidin-4-yl)methyl)acetamide] | < 1000 nM
C[C@@H](CNC(=O)c1ccc(Cl)cc1)[C@H]1CC[C@@H](c2ccnc3ccc(F)cc32)CC1 [Example 4, 4-chloro-N—((R)-2-((cis)-4-(6-fluoroquinolin-4-yl)cyclohexyl)propyl)benzamide] | < 1000 nM
C[C@@H](NC(=O)Cc1ccc(Cl)cc1)[C@H]1CC[C@@H](c2ccnc3ccc(F)cc32)CC1 [Example 5, 2-(4-chlorophenyl)-N-((R)-1-((1s,4S)-4-(6-fluoroquinolin-4-yl)cyclohexyl)ethyl)acetamide] | < 1000 nM
C[C@@H](NC(=O)Cc1ccccc1Cl)[C@H]1CC[C@@H](c2ccnc3ccc(F)cc32)CC1 [Example 6, 2-(2-chlorophenyl)-N-((R)-1-((1s,4S)-4-(6-fluoroquinolin-4-yl)cyclohexyl)ethyl)acetamide] | < 1000 nM
C[C@@H](NC(=O)Cc1cccc(Cl)c1)[C@H]1CC[C@@H](c2ccnc3ccc(F)cc32)CC1 [Example 7, 2-(3-chlorophenyl)-N-((R)-1-((1s,4S)-4-(6-fluoroquinolin-4-yl)cyclohexyl)ethyl)acetamide] | < 1000 nM
C[C@H](C(=O)N[C@H](C)[C@H]1CC[C@@H](c2ccnc3ccc(F)cc32)CC1)c1ccccc1 [Example 8, (S)-N-((R)-1-((1s,4S)-4-(6-fluoroquinolin-4-yl)cyclohexyl)ethyl)-2-phenylpropanamide] | < 1000 nM
C[C@@H](C(=O)N[C@H](C)[C@H]1CC[C@@H](c2ccnc3ccc(F)cc32)CC1)c1ccccc1 [Example 9, (R)-N-((R)-1-((1s,4S)-4-(6-fluoroquinolin-4-yl)cyclohexyl)ethyl)-2-phenylpropanamide] | < 1000 nM
COc1ccc(CC(=O)N[C@H](C)[C@H]2CC[C@@H](c3ccnc4ccc(F)cc43)CC2)cc1 [Example 10, N-((R)-1-((1s,4S)-4-(6-fluoroquinolin-4-yl)cyclohexyl)ethyl)-2-(4-methoxyphenyl)acetamide] | < 1000 nM
CO[C@@H](C(=O)N[C@H](C)[C@H]1CC[C@@H](c2ccnc3ccc(F)cc32)CC1)c1ccccc1 [Example 11] | < 100 nM
C[C@@H](NC(=O)Cc1ccccc1F)[C@H]1CC[C@@H](c2ccnc3ccc(F)cc32)CC1 [Example 12, 2-(2-fluorophenyl)-N-((R)-1-((1s,4S)-4-(6-fluoroquinolin-4-yl)cyclohexyl)ethyl)acetamide] | < 1000 nM

Results, then the compound that gave them:

IC50 | Structure (SMILES)
< 100 nM | C[C@@H](NC(=O)C1(c2ccc(Cl)cc2)CCC1)[C@H]1CC[C@@H](c2ccnc3ccc(F)cc32)CC1 [Example 13, 1-(4-chlorophenyl)-N-((R)-1-((1s,4S)-4-(6-fluoroquinolin-4-yl)cyclohexyl)ethyl)-cyclobutanecarboxamide]
< 100 nM | C[C@@H](NC(=O)C12CCC(Cl)(CC1)CC2)[C@H]1CC[C@@H](c2ccnc3ccc(F)cc32)CC1 [Example 14, 4-chloro-N—((R)-1-((cis)-4-(6-fluoroquinolin-4-yl)cyclohexyl)ethyl)bicyclo [2.2.2]octane-1-carboxamide]
< 100 nM | C[C@@H](NC(=O)C1CCCCC1)[C@H]1CC[C@@H](c2ccnc3ccc(F)cc32)CC1 [Example 15, N-((R)-1-((1s,4S)-4-(6-fluoroquinolin-4-yl)cyclohexyl)ethyl)-cyclohexanecarboxamide]
< 1000 nM | C[C@@H](NC(=O)C1CC1)[C@H]1CC[C@@H](c2ccnc3ccc(F)cc32)CC1 [Example 16, N-((R)-1-((1s,4S)-4-(6-fluoroquinolin-4-yl)cyclohexyl)ethyl)-cyclopropanecarboxamide]
< 1000 nM | C[C@@H](NC(=O)C1CC(F)(F)C1)[C@H]1CC[C@@H](c2ccnc3ccc(F)cc32)CC1 [Example 17, 3,3-difluoro-N-((R)-1-((1s,4S)-4-(6-fluoroquinolin-4-yl)cyclohexyl)ethyl)-cyclobutanecarboxamide]
< 1000 nM | C[C@@H](NC(=O)[C@H]1C[C@H](F)C1)[C@H]1CC[C@@H](c2ccnc3ccc(F)cc32)CC1 [Example 18, (1r,3R)-3-fluoro-N-((R)-1-((1s,4S)-4-(6-fluoroquinolin-4-yl)cyclohexyl)ethyl)-cyclobutanecarboxamide]
< 1000 nM | C[C@@H](NC(=O)[C@H]1C[C@@H](F)C1)[C@H]1CC[C@@H](c2ccnc3ccc(F)cc32)CC1 [Example 19, (1s,3S)-3-fluoro-N-((R)-1-((1s,4S)-4-(6-fluoroquinolin-4-yl)cyclohexyl)ethyl)-cyclobutanecarboxamide]
< 1000 nM | C[C@@H](NC(=O)C1CCC1)[C@H]1CC[C@@H](c2ccnc3ccc(F)cc32)CC1 [Example 20, N-((R)-1-((1s,4S)-4-(6-fluoroquinolin-4-yl)cyclohexyl)ethyl)-cyclobutanecarboxamide]
< 1000 nM | C[C@@H](NC(=O)[C@H]1CC[C@@H](O)CC1)[C@H]1CC[C@@H](c2ccnc3ccc(F)cc32)CC1 [Example 21, (1s,4S)-N-((R)-1-((1s,4S)-4-(6-fluoroquinolin-4-yl)cyclohexyl)ethyl)-4-hydroxycxclohexanecarboxamide]
< 1000 nM | C[C@@H](NC(=O)[C@H]1CC[C@H](O)CC1)[C@H]1CC[C@@H](c2ccnc3ccc(F)cc32)CC1 [Example 22, (1r,4R)-N-((R)-1-((1s,4S)-4-(6-fluoroquinolin-4-y1)cyclohexyl)ethyl)-4-hydroxycxclohexanecarboxamide]
